Test results reported in PubChem BioAssay AID2060615 (Molecular Pharmacology Branch, DTP, NCI, 2025).
Where “and” joins values, the source holds several entries; their conditions need not be identical. Identical values can stand only once.

System: 496974-208-R-J2-PDC complex spheroids, growth % test/control
Assay: Anticancer human tumor 496974-208-R-J2-PDC patient-derived pancreatic carcinoma cell line growth inhibition [CLK]
Conditions: for viability, T/C: stronger effect = lower value
How it was run: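 Patient-derived tumor cells grown as complex spheroids with HUVEC endothelial cells and mesenchymal stem cells, treated with drug combinations. Concentrations descend in half-log steps from near clinical Cmax, or from 10 microM if Cmax unknown.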

[1] = curve of first compound, second compound 0.0316 µM
[2] = curve of first compound, second compound 0.1 µM
[3] = curve of first compound, second compound 0.316 µM
[4] = curve of first compound, second compound 1 µM
[5] = curve of first compound, second compound 3.16 µM
[6] = curve of first compound, second compound 10 µM
[7] = second compound 0.0316 µM, first compound 0.0316 µM
[8] = second compound 0.0316 µM, first compound 0.1 µM
[9] = second compound 0.0316 µM, first compound 0.316 µM
[10] = second compound 0.0316 µM, first compound 1 µM
[11] = second compound 0.0316 µM, first compound 3.16 µM
[12] = second compound 0.0316 µM, first compound 10 µM
[13] = second compound 0.1 µM, first compound 0.0316 µM
[14] = second compound 0.1 µM, first compound 0.1 µM
[15] = second compound 0.1 µM, first compound 0.316 µM
[16] = second compound 0.1 µM, first compound 1 µM
[17] = second compound 0.1 µM, first compound 3.16 µM
[18] = second compound 0.1 µM, first compound 10 µM
[19] = second compound 0.316 µM, first compound 0.0316 µM
[20] = second compound 0.316 µM, first compound 0.1 µM
[21] = second compound 0.316 µM, first compound 0.316 µM
[22] = second compound 0.316 µM, first compound 1 µM
[23] = second compound 0.316 µM, first compound 3.16 µM
[24] = second compound 0.316 µM, first compound 10 µM
[25] = second compound 1 µM, first compound 0.0316 µM
[26] = second compound 1 µM, first compound 0.1 µM
[27] = second compound 1 µM, first compound 0.316 µM
[28] = second compound 1 µM, first compound 1 µM
[29] = second compound 1 µM, first compound 3.16 µM
[30] = second compound 1 µM, first compound 10 µM
[31] = second compound 3.16 µM, first compound 0.0316 µM
[32] = second compound 3.16 µM, first compound 0.1 µM
[33] = second compound 3.16 µM, first compound 0.316 µM
[34] = second compound 3.16 µM, first compound 1 µM
[35] = second compound 3.16 µM, first compound 3.16 µM
[36] = second compound 3.16 µM, first compound 10 µM
[37] = second compound 10 µM, first compound 0.0316 µM
[38] = second compound 10 µM, first compound 0.1 µM
[39] = second compound 10 µM, first compound 0.316 µM
[40] = second compound 10 µM, first compound 1 µM
[41] = second compound 10 µM, first compound 3.16 µM
[42] = second compound 10 µM, first compound 10 µM
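Note: spheroids exposed to the drugs for 7 days before readout.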
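Throughout, for viability, T/C: 100% = DMSO vehicle control wells.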

CC(Nc1ccc2c(c1)OCCn1cc(N3C(=O)OCC3C(F)F)nc1-2)C(N)=O (stereo unspecified) + CNC(=O)c1ccc(Nc2nc(OC3CCCC3)c3c(-c4ccc5nc(C)oc5c4)c[nH]c3n2)c(OC)c1
IC50 [1]: 150 nM
IC50 [2]: 184 nM
IC50 [3]: 95.5 nM
IC50 [4]: 68.7 nM
IC50 [5]: 49.2 nM
IC50 [6]: < 31.6 nM
viability, T/C [7]: 87.2%
viability, T/C [8]: 55.2%
viability, T/C [9]: 38.5%
viability, T/C [10]: 23.6%
viability, T/C [11]: 16.9%
viability, T/C [12]: 9.1%
viability, T/C [13]: 70.5%
viability, T/C [14]: 63.7%
viability, T/C [15]: 37.5%
viability, T/C [16]: 23.7%
viability, T/C [17]: 15.5%
viability, T/C [18]: 10.6%
viability, T/C [19]: 76.6%
viability, T/C [20]: 48.4%
viability, T/C [21]: 30.1%
viability, T/C [22]: 23.4%
viability, T/C [23]: 15.5%
viability, T/C [24]: 9.62%
viability, T/C [25]: 58.8%
viability, T/C [26]: 46.8%
viability, T/C [27]: 32.3%
viability, T/C [28]: 20.1%
viability, T/C [29]: 18.4%
viability, T/C [30]: 9.57%
viability, T/C [31]: 56.9%
viability, T/C [32]: 38.6%
viability, T/C [33]: 28.3%
viability, T/C [34]: 20%
viability, T/C [35]: 17.6%
viability, T/C [36]: 12.8%
viability, T/C [37]: 47.2%
viability, T/C [38]: 38.8%
viability, T/C [39]: 24.6%
viability, T/C [40]: 19%
viability, T/C [41]: 15.6%
viability, T/C [42]: 13.7%

CCc1c2c(nc3ccc(O)cc13)-c1cc3c(c(=O)n1C2)COC(=O)[C@]3(O)CC
viability, T/C (compound 0.00316 µM): 67.2% and 61.3%
viability, T/C (compound 0.01 µM): 32.4% and 47.9%
viability, T/C (compound 0.0316 µM): 25.7% and 35.4%
viability, T/C (compound 0.1 µM): 17.4% and 23.2%
viability, T/C (compound 0.316 µM): 9.88% and 12.9%
viability, T/C (compound 1 µM): 2.2% and 3.2%
IC50 (curve of compound): 6.04 nM and 8.48 nM

C=CC(=O)N1CCN(c2nc(=O)n(-c3c(C)ccnc3C(C)C)c3nc(-c4c(O)cccc4F)c(F)cc23)C(C)C1 (stereo unspecified) + CN1CCN(c2cc(C(=O)Nc3cc4cc(-c5cnn(C)c5)ccc4cn3)ccn2)CC1
IC50 [1]: > 10000 nM
IC50 [2]: > 10000 nM
IC50 [3]: < 31.6 nM
IC50 [4]: < 31.6 nM
IC50 [5]: < 31.6 nM
IC50 [6]: < 31.6 nM
viability, T/C [7]: 102%
viability, T/C [8]: 114%
viability, T/C [9]: 104%
viability, T/C [10]: 120%
viability, T/C [11]: 128%
viability, T/C [12]: 99.9%
viability, T/C [13]: 90.2%
viability, T/C [14]: 89.7%
viability, T/C [15]: 89.2%
viability, T/C [16]: 104%
viability, T/C [17]: 101%
viability, T/C [18]: 78.4%
viability, T/C [19]: 8.25%
viability, T/C [20]: 9.83%
viability, T/C [21]: 8.72%
viability, T/C [22]: 10.3%
viability, T/C [23]: 7.48%
viability, T/C [24]: 5.87%
viability, T/C [25]: 0.39%
viability, T/C [26]: 0.6%
viability, T/C [27]: 1.15%
viability, T/C [28]: 0.78%
viability, T/C [29]: 1%
viability, T/C [30]: 3.71%
viability, T/C [31]: 0.44%
viability, T/C [32]: 1.82%
viability, T/C [33]: 0.7%
viability, T/C [34]: 0.75%
viability, T/C [35]: 0.83%
viability, T/C [36]: 2.13%
viability, T/C [37]: 0.31%
viability, T/C [38]: 0.35%
viability, T/C [39]: 0.36%
viability, T/C [40]: 0.46%
viability, T/C [41]: 2.05%
viability, T/C [42]: 0.94%
